Assays:
PPARα = target: T1, PPARα (Homo sapiens, UniProt Q07869); assay: PPARα ligand activity, GAL4-PPARα reporter luciferase assay in CV-1 cells; type: cell-based; details: 24 hr incubation, KetoA and HYA each at 30 μM, other fatty acids by a similar method
T1 construct: expressed in transfected cells; host or cells: CV-1 (African green monkey kidney)
T1 sequence (Q07869 239-466 limits assumed): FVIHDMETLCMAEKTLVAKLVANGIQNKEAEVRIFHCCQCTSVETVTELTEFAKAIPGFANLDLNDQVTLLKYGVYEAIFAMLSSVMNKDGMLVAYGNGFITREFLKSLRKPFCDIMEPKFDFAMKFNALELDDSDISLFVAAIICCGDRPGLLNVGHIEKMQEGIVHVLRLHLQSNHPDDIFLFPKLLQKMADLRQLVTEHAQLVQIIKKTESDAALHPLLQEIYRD
Method: (§1) To evaluate the function of oxo fatty acid and the like, PPARα, γ-activating action was measured first. The measurement was performed in reference to Nobuyuki Takahashi et al., FEES Letters 514 (2002) p. 315-322, “Dual action of isoprenols from herbal medicines on both PPARgamma and PPARalpha in 3T3-L1 adipocytes and HepG2 hepatocytes.”, the section of Materials and Methods “Reporter plasmids and luciferase assays”. To be specific, a plasmid containing DNA encoding a fused protein of PPARα, γ ligand binding region and GAL4 DNA binding region (pM-hPPARα or pM-hPPARγ), a reporter plasmid containing GAL4 binding DNA sequence linked to luciferase (p4xUASg-tk-luc), and internal control (pRL-CMV) to standardize transfection efficiency were introduced into CV-1 cell derived from the kidney of African green monkey. The ligand described below was added to the cells and, after incubation for 24 hr, luciferase activity was measured. As a ligand, KetoA and HYA were each added at 30 μM.
(§2) The concentration of the sample was adjusted with ethanol. Ethanol was used as a negative control, […], and GW7647 (10 nM) and Troglitazone (5 μM) were used as […].

LXR = target: T2, LXR (Homo sapiens, UniProt Q13133); assay: Antagonizing action on LXR by luciferase assay; type: cell-based; details: overall finding from SREBP-1c, SREBP-1, SCD-1, FAS, ACC1, 2, triacylglycerol and LXR luciferase measurements in HepG2 cells
T2 construct: expressed in transfected cells; host or cells: HepG2 (human liver cancer-derived)
T2 sequence (Q13133 1-447): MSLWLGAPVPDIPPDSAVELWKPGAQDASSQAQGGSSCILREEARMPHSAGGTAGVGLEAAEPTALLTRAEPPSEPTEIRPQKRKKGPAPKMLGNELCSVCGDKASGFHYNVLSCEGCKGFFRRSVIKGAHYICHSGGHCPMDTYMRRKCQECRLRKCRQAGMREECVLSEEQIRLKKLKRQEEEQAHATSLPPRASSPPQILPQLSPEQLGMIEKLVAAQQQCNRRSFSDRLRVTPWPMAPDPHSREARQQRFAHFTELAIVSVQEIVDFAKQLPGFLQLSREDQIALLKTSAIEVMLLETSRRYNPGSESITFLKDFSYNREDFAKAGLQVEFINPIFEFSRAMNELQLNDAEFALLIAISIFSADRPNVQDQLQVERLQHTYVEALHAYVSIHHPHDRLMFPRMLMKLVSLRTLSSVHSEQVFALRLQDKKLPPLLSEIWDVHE
Method: In addition, the protein expression level of immature and mature SREBP-1c was measured. Cells treated as mentioned above were dispersed in buffer A (250 mM sucrose, 10 mM HEPES-KOH, 10 mM KCl, 1.5 mM MgCl2, 1 mM EDTA-Na, 1 mM EGTA-Na, pH 7.6) containing a protease inhibitor, passed 20 times through a 23 gauge injection needle, and centrifuged (1,000×g, 4° C., 5 min) to separate into supernatant 1 and precipitate 1. The precipitate 1 was re-dissolved in buffer B (20 mM HEPES-KOH, 0.42 M NaCl, 2.5% glycerol, 1.5 mM MgCl2, 1 mM EDTA-Na, 1 mM EGTA-Na, pH 7.6), and centrifuged (10^5×g, 4° C., 15 min). The obtained supernatant 2 was used as a nuclear fraction (including mature form). The supernatant 1 was further centrifuged (10^5×g, 4° C., 15 min), and the obtained precipitate 2 was dissolved in cell lysate (10 mM Tris-HCl, 100 mM NaCl, 1% SDS, 1 mM EDTA-Na, 1 mM EGTA-Na) and used as a membrane fraction (including immature form). Using these as samples, measurement was performed by Western blot method using anti-SREBP-1 polyclonal antibody (Santa Cruz). Using Dual luciferase system (Promega), antagonizing action on LXR was evaluated by luciferase assay. p3xIR1-tk-Luc, pCMX-hLXRa, pRL-CMX were introduced into HepG2 cell. After culture in a 0.1% BSA-containing serum-free medium containing various fatty acids and T0901317 for 24 hr, the luciferase activity was measured.

PPARγ = target: T3, PPARγ (Homo sapiens, UniProt P37231); assay: PPARγ ligand activity, GAL4-PPARγ reporter luciferase assay in CV-1 cells; type: cell-based; details: 24 hr incubation, KetoA and HYA each at 30 μM, other fatty acids by a similar method
T3 construct: expressed in transfected cells; host or cells: CV-1 (African green monkey kidney)
T3 sequence (P37231 238-503 limits assumed): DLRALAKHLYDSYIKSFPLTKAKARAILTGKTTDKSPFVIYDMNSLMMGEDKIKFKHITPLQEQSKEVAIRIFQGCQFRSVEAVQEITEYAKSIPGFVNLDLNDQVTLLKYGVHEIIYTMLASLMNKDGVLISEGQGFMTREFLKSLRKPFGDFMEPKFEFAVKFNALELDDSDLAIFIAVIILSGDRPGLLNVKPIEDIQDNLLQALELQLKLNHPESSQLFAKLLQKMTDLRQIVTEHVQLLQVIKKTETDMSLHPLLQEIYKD
Method: as §1, §2

HepG2 cells [1] = assay: Intracellular triacylglycerol accumulation by LXR agonist; type: cell-based, human; details: 10 nM T0901317 alone, 24 hr
Method: HepG2 cells (2.0×10^5 cells/mL) were cultured in DMEM medium containing 10% FES for 24 hr, and the medium was exchanged with 0.1% BSA-containing DMEM medium containing 10 nM LXR agonist T0901317 (Cayman Chemicals) and 60 μM various fatty acid. After culture for 24 hr, the cells were recovered, and total RNA was extracted using Sepasol reagent (Nacalai Tesque). After DNase treatment, reverse transcription was performed using SuperScriptII (Invitrogen) to give a cDNA solution. Using SYBR Green Mix (Bio-Rad, Richmond, Calif.) and gene-specific primer (Table 1), real-time PCR was performed as follows.
1. Reaction at 96° C., 15 min, 2. reaction at 96° C., 15 sec, 3. reaction at 60° C. for 30 sec, 4. measurement of fluorescence, 5. 2-4 were repeated 40 times, 6. the melting curve was measured from 65° C. to 95° C. at 0.4° C. intervals. As the internal standard, 18S rRNA was used. The genes involved in the fatty acid synthesis as measured were Sterol regulatory element binding protein-1c (SREBP-1c), Stearoyl coenzyme A desaturase-1 (SCD-1), Fatty acid synthase (FAS), and Acetyl CoA carboxylase-1 and -2 (ACC-1, 2). As for the amount of accumulated intracellular TG, the lipid was extracted with chloroform-methanol, and quantified by triglyceride-′E Test Wako (Wako Pure Chemical Industries, Ltd.).

HepG2 cells [2] = assay: Effect on LXR agonist-induced expression of fatty acid synthesis genes, real-time PCR; type: cell-based, human; details: 10 nM T0901317 alone, 24 hr

SMILES	PPARα agonist activity (relative luciferase activity) (PPARα)	lipid synthesis suppressive action by the antagonizing action on LXR (LXR)	PPARγ agonist activity (relative luciferase activity) (PPARγ)	intracellular triacylglycerol level (HepG2 cells [1])	expression of SREBP-1c mRNA (HepG2 cells [2])
CCCCCCCCC(O)CCCCCCCCC(=O)O (stereo not shown) [HYB, 10-hydroxyoctadecanoic acid]	PPARα agonist activity	lipid synthesis suppressive action	–	–	–
CCCCCCCCC(=O)CCCCCCCCC(=O)O [KetoB, 10-oxooctadecanoic acid]	PPARα agonist activity	–	–	–	–
CCCCCC/C=C/C(=O)CCCCCCCCC(=O)O [KetoC, 10-oxo-trans-11-octadecenoic acid]	PPARα and γ agonist activity	–	PPARα and γ agonist activity	–	–
CCCCCC[C@@H](O)C/C=C\CCCCCCCC(=O)O [RA, ricinoleic acid]	PPARα agonist activity	lipid synthesis suppressive action	–	–	–
O=S(=O)(c1ccccc1)N(CC(F)(F)F)c1ccc(C(O)(C(F)(F)F)C(F)(F)F)cc1 [T0901317, reference compound]	–	–	–	increased	about 7 fold
CCCCCCC(O)CC(O)CCCCCCCCC(=O)O (stereo not shown) [rHYA, 10,12-dihydroxyoctadecanoic acid]	PPARα agonist activity	–	–	–	–
CCCCCCC(O)CCCCCCCCCCC(=O)O (stereo not shown) [rHYB, 12-hydroxyoctadecanoic acid]	PPARα agonist activity	lipid synthesis suppressive action	–	–	–
CCCCCCC(=O)CCCCCCCCCCC(=O)O [rKetoB, 12-oxooctadecanoic acid]	PPARα agonist activity	lipid synthesis suppressive action	–	–	–
CC/C=C\C/C=C\CC(O)CCCCCCCCC(=O)O (stereo not drawn) [αHYA, 10-hydroxy-cis-12,cis-15-octadecadienoic acid]	PPARα agonist activity	–	–	–	–
CC/C=C\C/C=C\CC(=O)CCCCCCCCC(=O)O [αKetoA, 10-oxo-cis-12,cis-15-octadecadienoic acid]	–	lipid synthesis suppressive action	PPARγ agonist activity	–	–
CC/C=C\CC/C=C/C(=O)CCCCCCCCC(=O)O [αKetoC, 10-oxo-trans-11,cis-15-octadecadienoic acid]	PPARα and γ agonist activity	–	PPARα and γ agonist activity	–	–
CCCCC/C=C\CC(O)CC/C=C\CCCCC(=O)O (stereo not drawn) [γHYA, 10-hydroxy-cis-6,cis-12-octadecadienoic acid]	PPARα agonist activity	lipid synthesis suppressive action	–	–	–
CCCCC/C=C\CC(=O)CC/C=C\CCCCC(=O)O [γKetoA, 10-oxo-cis-6,cis-12-octadecadienoic acid]	–	lipid synthesis suppressive action	PPARγ agonist activity	–	–
CCCCCC/C=C/C(=O)CC/C=C\CCCCC(=O)O [γKetoC, 10-oxo-cis-6,trans-11-octadecadienoic acid]	PPARα and γ agonist activity	–	PPARα and γ agonist activity	–	–
